The supplement of paper PMC10307832

Key:
Assay in all cases: relative viability (nuclei count vs DMSO), 5 days (fraction); higher = more cells survive
Irinotecan + Tozasertib = compound: CCc1c2c(nc3ccc(OC(=O)N4CCC(N5CCCCC5)CC4)cc13)-c1cc3c(c(=O)n1C2)COC(=O)[C@]3(O)CC [Irinotecan] + Cc1cc(Nc2cc(N3CCN(C)CC3)nc(Sc3ccc(NC(=O)C4CC4)cc3)n2)n[nH]1 [Tozasertib] (partner 0.1 µM)
Outline: (§1)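 The day after seeding in 1536-well plates, lung cancer cell lines were treated by pin tool with a single drug, or with a fixed anchor-drug dose together with five library-drug doses (not always all listed) in √10 steps. After 5 days, a combined fix-and-stain solution (final 0.05% Triton X-100, 1% formaldehyde, 1 ug/ml Hoechst) was added. Nuclei counted on 4× images gave relative viability as treated counts over vehicle counts, reported as the median of duplicate plates.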

MK-8033 + Bortezomib = compound: Cn1cc(-c2cnc3ccc4ccc(CS(=O)(=O)NCc5ccccn5)cc4c(=O)c3c2)cn1 [MK-8033] + CC(C)C[C@H](NC(=O)[C@H](Cc1ccccc1)NC(=O)c1cnccn1)B(O)O [Bortezomib] (partner 0.002 µM)
Outline: as §1

Irinotecan + Dasatinib = compound: CCc1c2c(nc3ccc(OC(=O)N4CCC(N5CCCCC5)CC4)cc13)-c1cc3c(c(=O)n1C2)COC(=O)[C@]3(O)CC [Irinotecan] + Cc1nc(Nc2ncc(C(=O)Nc3c(C)cccc3Cl)s2)cc(N2CCN(CCO)CC2)n1 [Dasatinib] (partner 0.075 µM)
Outline: as §1

MK-8033 + Decitabine = compound: Cn1cc(-c2cnc3ccc4ccc(CS(=O)(=O)NCc5ccccn5)cc4c(=O)c3c2)cn1 [MK-8033] + Nc1ncn([C@H]2C[C@H](O)[C@@H](CO)O2)c(=O)n1 [Decitabine] (partner 2 µM)
Outline: as §1

UMC-11
relative viability (Irinotecan + Tozasertib; first compound 0.6325 µM): 0.194
relative viability (Irinotecan + Tozasertib; first compound 2 µM): 0.25
relative viability (Irinotecan + Tozasertib; first compound 6.325 µM): 0.268
relative viability (Irinotecan + Tozasertib; first compound 20 µM): 0.247
relative viability (MK-8033 + Bortezomib; first compound 0.02 µM): 0.673
relative viability (MK-8033 + Bortezomib; first compound 0.06325 µM): 0.664
relative viability (MK-8033 + Bortezomib; first compound 0.2 µM): 0.831
relative viability (MK-8033 + Bortezomib; first compound 0.6325 µM): 0.665
relative viability (MK-8033 + Bortezomib; first compound 2 µM): 0.664
relative viability (Irinotecan + Dasatinib; first compound 0.6325 µM): 0.422
relative viability (Irinotecan + Dasatinib; first compound 2 µM): 0.372
relative viability (Irinotecan + Dasatinib; first compound 6.325 µM): 0.232
relative viability (Irinotecan + Dasatinib; first compound 20 µM): 0.104
relative viability (MK-8033 + Decitabine; first compound 0.02 µM): 0.593
relative viability (MK-8033 + Decitabine; first compound 0.06325 µM): 0.424
relative viability (MK-8033 + Decitabine; first compound 0.2 µM): 0.59
relative viability (MK-8033 + Decitabine; first compound 0.6325 µM): 0.714
relative viability (MK-8033 + Decitabine; first compound 2 µM): 0.612
